Our source for the TGI and GI50 values is PubChem BioAssay (NCI).

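Method: 48-hour compound exposure of cells in 96-well plates, five concentrations, linear interpolation of endpoints. Abbreviation: GI50, concentration required for 50% inhibition of growth. TGI: concentration producing complete growth inhibition.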 Some results are limits rather than exact numbers.

What all share (assay): inhibition of tumour cell growth, NCI panel, 48 h
Assay [1] concerns LOX IMVI melanoma.
Assay [2] has as its system UACC-257 melanoma.
The subject of assay [3] is A549 NSCLC.
Assay [4] concerns HCT-15 colon.
In assay [5] the test system is SW-620 colon.
In assay [6] the test system is SNB-19 CNS.
In assay [7] the test system is RXF 393 renal.
In assay [8] the test system is M14 melanoma.
Assay [9] concerns SK-OV-3 ovarian.
Assay [10] has as its system MOLT-4 leukemia.

For `C=C1CC[C@@]2(C)[C@@H]([C@@H]1C)[C@H]1CC[C@@H]3[C@@]4(C)CC[C@H](O)C(C)(C)[C@@H]4CC[C@@]3(C)[C@]1(C)C[C@@H]2O`, the TGI in [1] was 3.47 µM; in assay [2] it was 31.3 µM; in assay [3], 4.65 µM; in assay [4], 11.2 µM; in assay [5] it was more than 100 µM; in [6], 8.44 µM. In addition, the TGI in assay [7] was 4.04 µM; in [8], 32.7 µM; in assay [9], 51.3 µM; in assay [10], more than 100 µM.
Turning to `O=C([CH-]C(=O)c1ccccc1)c1ccccc1.[C-]#[O+].[C-]#[O+].[Ir]`, the GI50 in [1] was 46.5 µM; in [2], more than 100 µM; in assay [3], 82.9 µM; in assay [4] it was 42.6 µM; in assay [5], 59.4 µM; in assay [6] it was 66.4 µM. In addition, the GI50 was 33.6 µM in assay [7], 54.3 µM in assay [8], more than 100 µM in assay [9] and 56.7 µM in [10]. In addition, the TGI in assay [1], in assay [2], in assay [3], in assay [4], in assay [5] and in assay [6] was more than 100 µM each time. Besides, the TGI in assay [7], in assay [8], in assay [9] and in [10] was more than 100 µM in each case.
